Results reported in US10799508B2, “Methods for treating cancer using HSP90 inhibitors” (AI Therapeutics, Inc., priority 2017, dated 2020).

How the values were obtained:
[1] = tested on: IFN-γ-induced PD-L1 expression in SK-MEL-28 cells; test: 10-point dose response validation of IFN-γ-induced PD-L1 signal; assay type: cell-based, human; details: SK-MEL-28, IFN-γ 50 ng/ml, 48 h, FIG. 2A-E
Procedure: FIG. 1A-D. Validation dose response curves of HSP90 inhibitors tested in the original screen. A) CNF2024; B) PF04928473; C) tanespimycin; D) HSP-990. SK-MEL-28 cells treated with IFN-γ and with the indicated HSP90 inhibitor at different concentrations. Cells were assayed for cell viability (square, % viability on left axis) and PD-L1 expression (circle, Z-score right axis) at 48 h after treatment of IFN-γ and/or HSP90 inhibitors. Quadruplicate wells were used for determination of cell viability and PD-L1 expression. Average values were plotted. […] Lysates were probed with anti PD-L1 antibody.
FIG. 2A-E. Dose response curves of 5 additional HSP90 inhibitors. A) STA-9090, B) CUDC-305, C) MPC-3100, D) XL-888 and E) TAS-116. SK-MEL-28 cells treated with IFN-γ (50 ng/ml) and with the indicated HSP90 inhibitor at different concentrations. Cells were assayed for cell viability (square, % viability on left axis) and PD-L1 expression (circle, Z-score right axis) at 48 h after treatment of IFN-γ and/or HSP inhibitors. Quadruplicate wells were used for determination of cell viability and PD-L1 expression. Average values were plotted.
After assessment for viability, plates were then prepared for immunostaining. Briefly, 16% paraformaldehyde (Electron Microscopy Sciences) was added to each well to a final concentration of 4%, for 10 minutes at room temperature. Following this time, the fix was aspirated and cells were washed 3 times with PBS. Cells were blocked using blocking solution (1% bovine serum albumin in PBS) for 30 minutes. After this time, the blocking reagent was aspirated and immunostaining reagent added. The immunostaining reagent consisted of a biotin conjugated-PD-L1 antibody (eBioscience) diluted in blocking buffer. Plates were sealed and kept at 4 C overnight. The following day, plates were washed 3 times with PBS followed by addition of a streptavidin-luciferase fusion protein (Invivogen) diluted in blocking buffer, for 1 h at room temperature. After this step, the plates were washed 3 times with PBS. After the final wash, PBS was aspirated and 30 uL of QUANTI-Luc™ (Invivogen) was added per well. Plates were immediately read on a plate reader (Victor 3V plate reader, 0.1s) and luciferase activity measured.
The raw PD-L1 intensity (the luciferase readout) corresponding to drug screen plates was normalized to blank plates containing only IFN-γ-treated wells, and the resulting ratio was used for the calculation of Z-scores.
These 4 HSP90 inhibitors were validated using the same experimental protocol employed above (using the SK-MEL-28 cells +/−IFN-γ in 384 well plates), with the only exception to the original assay design was that each drug was now tested in a 10-point dose response assay where the concentration of drug tested was 9.8-5000 nM (2 fold serial dilution). Cells were seeded and treated in quadruplicate. Viability was assessed after 48 h of treatment of four HSP 90 inhibitors and prior to harvesting the cells for testing PD-L1 signal, as described above.

[2] = tested on: IFN-γ-induced PD-L1 expression in HCC-38 cells; test: Western blot of IFN-γ-induced PD-L1 protein expression; assay type: cell-based, human; details: for IFN-γ-induced PD-L1 expression: IFN-γ 50 ng/ml, 48 h, Western blot
Procedure: FIG. 3. […] Human HCC-38 cells treated with IFN-γ alone or co-treated with ruxolitinib (5000 nM) or MPC-3100 (10-5000 nM) for 48 h were analyzed by Western blot analysis to determine protein expression levels of PD-L1. Ruxolitinib served as a positive control for inhibiting JAK2. β-Actin was used as a loading control.

p-STAT1 in HCC-38 cells = test: Western blot of IFN-γ-induced pSTAT1; assay type: cell-based, human
Procedure: (§1) FIG. 5. HCC-38 cells treated with IFN-γ alone or co-treated with ruxolitinib (5000 nM) or MPC-3100 (10-5000 nM) were analyzed by Western blot to determine protein expression levels of HSP70 and pSTAT1. β-Actin was used as a loading control.
Since IFN-γ stimulates the expression of its target genes, such as PD-L1, which is mediated via JAK/STAT-1 signaling, the human HCC-38 cell line was used to probe the mechanism for IFN-γ-induced PD-L1 expression.

[3] = tested on: HSP70 expression in HCC-38 cells; details: HCC-38 treated with MPC-3100, Western blot
Procedure: as §1

[4] = tested on: PD-L1 expression in U87 cells
Procedure: (§2) FIG. 7. […] U87 cells were treated with MPC-3100 (500 and 1000 nM) for 24 h and analyzed by Western blotting with the indicated antibodies. β-Actin was used as a loading control.
(§3) Lysates were then prepared and queried for protein expression using western blot analysis.

pAkt in U87 cells = details: U87, MPC-3100 500 or 1000 nM, 24 h, Western blot
Procedure: as §2, §3

[5] = tested on: IDO expression in HCC-38 cells; details: HCC-38, MPC-3100 1000 nM or 5000 nM, 48 h, Western blot
Procedure: Effect of HSP90 inhibitor MPC-3100 on IFN-γ-induced IDO protein levels. Human HCC-38 cells treated with IFN-γ alone or co-treated with ruxolitinib (5000 nM) or MPC-3100 (100, 1000 or 5000 nM) for 48 h. Lysates were analyzed by Western blot to determine protein expression levels of IDO.

[6] = read-out: maximum concentration (Cmax, geometric mean) in plasma; patients dosed at the recommended phase 2 dose; cited from earlier work
[7] = tested on: PD-L1 cell surface expression in EMT-6 cells; test: Flow cytometry of IFN-γ-induced PD-L1 cell surface expression, EMT-6; details: EMT-6 (murine), IFN-γ plus MPC-3100, flow cytometry
Procedure: (§4) A) SK-MEL-28 and HCC-38 (both human lines) were treated with IFN-γ (50 ng/ml), MPC-3100 (500 nM or 1000 nM) or the combination for 48 h. B) EMT-6 and B16-F10 (both murine cell lines) were also treated with IFN-γ, MPC-3100 or the combination for 24 h. PD-L1 cell surface signals were analyzed by flow cytometry. Experiments were performed in duplicate and at least 2 independent times.
(§5) Two human cell lines were used (SK-MEL-28 and HCC-38 cells) and two murine cell lines were used (B16-F10, a melanoma cell line and EMT-6, a breast cancer cell line). All cells lines were treated with IFN-γ (50 ng/nl) and co-treated with MPC-3100 at the indicated concentrations for 48 h.

[8] = tested on: PD-L1 cell surface expression in HCC-38 cells; test: Flow cytometry of IFN-γ-induced PD-L1 cell surface expression, HCC-38; details: HCC-38, IFN-γ, MPC-3100 500 nM or 1000 nM, 48 h
Procedure: as §4, §5

[9] = tested on: PD-L1 cell surface expression in B16-F10 cells; test: Flow cytometry of IFN-γ-induced PD-L1 cell surface expression, B16-F10; details: B16-F10 (murine), IFN-γ plus MPC-3100, flow cytometry
Procedure: as §4, §5

[10] = tested on: PD-L1 cell surface expression in SK-MEL-28 cells; test: Flow cytometry of IFN-γ-induced PD-L1 cell surface expression, SK-MEL-28; details: SK-MEL-28, IFN-γ, MPC-3100 500 nM or 1000 nM, 48 h
Procedure: as §4, §5

## C[C@H](O)C(=O)N1CCC(CCn2c(Sc3cc4c(cc3Br)OCO4)nc3c(N)ncnc32)CC1 [MPC-3100]
[1]
  concentration required to inhibit IFN-γ-induced PD-L1 expression compared with concentration required to affect cell proliferation: far lower
[2]; HCC-38, MPC-3100 100 nM
  IFN-γ-induced PD-L1 expression: reduced
[2]; HCC-38, MPC-3100 1000 nM
  IFN-γ-induced PD-L1 expression: completely abrogated
[2]; compared with plasma Cmax ~13 μM
  concentrations eliciting immuno-modulatory activity toward PD-L1, fold lower than Cmax at RP2D: at least 10 fold
p-STAT1 in HCC-38 cells; HCC-38
  concentrations blocking p-STAT1, fold lower than the Cmax at the recommended Phase 2 dose: at least 10 fold
p-STAT1 in HCC-38 cells; HCC-38, MPC-3100 10-5000 nM, Western blot
  IFN-γ-induced p-STAT1: blocks
[3]
  HSP70 expression: increase
[4]; U87
  concentrations inhibiting PD-L1 expression, fold lower than the therapeutic dose: ~10 fold
[4]; U87, MPC-3100 500 or 1000 nM, 24 h, Western blot
  constitutive PD-L1 expression: attenuation
pAkt in U87 cells
  pAkt: reduction
[5]
  IFN-γ-induced IDO expression: inhibited
[6]
  Cmax: ~13 µM
[7]
  IFN-γ-induced cell surface expression of PD-L1: effectively inhibited
[8]
  IFN-γ-induced cell surface expression of PD-L1: effectively inhibited
[9]
  IFN-γ-induced cell surface expression of PD-L1: effectively inhibited
[10]
  IFN-γ-induced cell surface expression of PD-L1: effectively inhibited
